Test results from patent publication US9952300B2, “Dynamic contrast enhanced MRI method and agents for the assessment of the macromolecular transport within pathologic tissues” (BRACCO IMAGING S.P.A., priority 2012, dated 2018).
Marks after values point to notes of the source that are not given here.

Tested on: A431 human epidermoid carcinoma xenografts
Assay: DCE-MRI with B22956/1 in A431 xenografts 24 h after PTX or vehicle (Example 5)
Assay type: in vivo, NCR athymic nude mice
Protocol: Human epidermoid carcinoma cell line (A431) (supplied by ATCC) were cultured in DMEM (Dulbecco's Modified Eagle Medium) High Glucose medium (4.5 g/L glucose) (Sigma-Aldrich, Steinheim, Germany), supplemented with 10% heat-inactivated foetal bovine serum (Lonza, Verviers, Belgium), 2 mM glutamine (Lonza, Verviers, Belgium), 100 IU/mL penicillin and 100 μg/mL streptomycin (Lonza, Verviers, Belgium) and maintained in a humidified atmosphere with 5% CO2 at 37° C. Exponentially growing cells were harvested and washed two times with PBS. Two million A431 cells were resuspended in 0.1 mL PBS and injected subcutaneously in the right and left flank of each of the 6 week old female mice. Tumors development were followed daily after inoculation, initially by palpation and by caliper once the mass will be established, until the day of the sacrifice. Mice were distributed randomly into 2 groups (Treated and Control) on the day of initial drug treatment when the average tumor diameter reached 7-8 mm, measured by caliper.
Paclitaxel (PTX) (Indena S.p.A., Milan, Italy): PTX solution was prepared in 50% Cremophor EL and 50% ethanol as described in Example 4 and further diluted in saline immediately before use to a final concentration of 2 mg/mL. PTX was administered intravenously (i.v., singular administration) at a dose of 20 mg/kg.
To this extent, 8 mice were divided into 2 groups; 2 animals of each of the two obtained groups were treated with PTX and 2 with vehicle (CTRL). Treatments started 14 days after the tumor implant, when the tumor reached a diameter in the range 7-8 mm, measured by caliper. The animals were administered with PTX or with CTRL at day 14 from the tumor implant (considered as DAY1). 24 hours after the treatment with PTX or CTRL (DAY2) each animal was injected with B22956/1 (used as non-limiting example of contrast agent according to the invention) and imaged with DCE-MRI. MRI imaging was performed pre-contrast and at different time points post-contrast agents administration. […] At DAY3 all the mice were imaged in vivo by Optical Imaging (01); then FITC-Albumin (10 mg/mL) was injected and 5 minutes later the animals were sacrificed. Tumors were excised and a second Optical Imaging acquisition was performed ex vivo. Finally tumors were prepared for the histological examination.
B22956/1, (Bracco Imaging S.p.A., obtained as above referred) was used as MRI contrast agent (CA). B22956/1 was intravenously injected at the dose of 100 μmol/kg, with an administration volume of 4 mL/kg.
24 hours after the treatment with PTX or CTRL each animal was injected with the CA (B22956/1) and imaged with DCE-MRI. The contrast agent was injected intravenously at an injection rate of about 1 mL/min through a catheter placed in the tail vein of the animal. For MR imaging experiments, animals were pre-anaesthetized with isofluorane gas (about 1%) in a mixture of 33% O2 and 66% N2O and the anesthesia was then maintained by adjustment of gas level in function of breath rate. MRI imaging was performed at different time points post-contrast agents administration. In particular, pre-contrast coronal and axial Rare T2-weighted anatomical images were acquired with the optimized parameters for high resolution with a good contrast, to detect the tumour mass. 3D FLASH images (Fast Low Angle Shot; TR about 6-7 milliseconds) with variable flip angle θ (FA=5-90° were acquired before contrast agent injection to estimate the tumour and muscle longitudinal relaxation time by using matrix 128×128×8, slice thickness ˜1.5 mm, FOV ˜3.0×3.0 cm. The same sequences (FA=20°, TR about 6-7 milliseconds) were then acquired to follow CA dynamic in tumor and blood vessels after CA i.v. injection. Flow artifacts were avoided by placing two thick saturation bands just above and below the measured slices. […]

[1] = A431 tumors 24 h after PTX 20 mg/kg i.v., mean of 8 tumors

| Structure (SMILES) | extravasation of the contrast agent within the first minute after injection (mouse, in vivo) | AUC10.20 (of B22956/1), Mean (A431 tumors 24 h after PTX 20 mg/kg i.v., 10 to 20 min post injection, mean of 8 tumors) | AUC20.30 (of B22956/1), Mean (A431 tumors 24 h after PTX 20 mg/kg i.v., 20 to 30 min post injection, mean of 8 tumors) | ktrans (of B22956/1), Mean (A431 tumors 24 h after PTX 20 mg/kg i.v., B22956/1 100 μmol/kg, mean of 8 tumors) | AVGENH (of B22956/1), Mean [1] | EARLYAUCRATIO (of B22956/1), Mean [1] | IAUC1 (of B22956/1), Mean [1] | LATEAUCRATIO (of B22956/1), Mean [1] | fPV (of B22956/1), Mean [1] | kep (of B22956/1), Mean [1] |
| --- | --- | --- | --- | --- | --- | --- | --- | --- | --- | --- |
| C[C@H](CCC(=O)[O-])[C@H]1CC[C@H]2[C@@H]3CC[C@@H]4C[C@@H](NC(=O)CC[C@@H](C(=O)[O-])N(CCN(CC(=O)[O-])CC(=O)[O-])CCN(CC(=O)[O-])CC(=O)[O-])CC[C@]4(C)[C@H]3C[C@H](O)[C@]12C.[Gd+3].[Na+].[Na+].[Na+] [B22956/1, Gadocoletic acid trisodium salt] | negligible |  |  |  |  |  |  |  |  |  |
| CC(=O)O[C@H]1C(=O)[C@@]2(C)[C@H]([C@H](OC(=O)c3ccccc3)[C@]3(O)C[C@H](OC(=O)[C@H](O)[C@@H](NC(=O)c4ccccc4)c4ccccc4)C(C)=C1C3(C)C)[C@]1(OC(C)=O)CO[C@@H]1C[C@@H]2O [PTX, Paclitaxel] |  | 27* | 25.3** | 0.0255* | 54* | 0.036 | 0.8 | 1.14** | 0.038 | 0.112 |
